Results on 13 molecules are retold here after patent US11130756B2, “[1,2,4]Triazolo[4,3-A]pyridinyl substituted indole compounds” (BRISTOL-MYERS SQUIBB COMPANY, priority 2017, dated 2021).

Common to all, as to format: cell-based
One assay deals with T1, human TLR7 (Homo sapiens, UniProt Q9NYK1).
T1 construct: host or cells: HEK-Blue cells
T1 sequence (Q9NYK1 27-1049): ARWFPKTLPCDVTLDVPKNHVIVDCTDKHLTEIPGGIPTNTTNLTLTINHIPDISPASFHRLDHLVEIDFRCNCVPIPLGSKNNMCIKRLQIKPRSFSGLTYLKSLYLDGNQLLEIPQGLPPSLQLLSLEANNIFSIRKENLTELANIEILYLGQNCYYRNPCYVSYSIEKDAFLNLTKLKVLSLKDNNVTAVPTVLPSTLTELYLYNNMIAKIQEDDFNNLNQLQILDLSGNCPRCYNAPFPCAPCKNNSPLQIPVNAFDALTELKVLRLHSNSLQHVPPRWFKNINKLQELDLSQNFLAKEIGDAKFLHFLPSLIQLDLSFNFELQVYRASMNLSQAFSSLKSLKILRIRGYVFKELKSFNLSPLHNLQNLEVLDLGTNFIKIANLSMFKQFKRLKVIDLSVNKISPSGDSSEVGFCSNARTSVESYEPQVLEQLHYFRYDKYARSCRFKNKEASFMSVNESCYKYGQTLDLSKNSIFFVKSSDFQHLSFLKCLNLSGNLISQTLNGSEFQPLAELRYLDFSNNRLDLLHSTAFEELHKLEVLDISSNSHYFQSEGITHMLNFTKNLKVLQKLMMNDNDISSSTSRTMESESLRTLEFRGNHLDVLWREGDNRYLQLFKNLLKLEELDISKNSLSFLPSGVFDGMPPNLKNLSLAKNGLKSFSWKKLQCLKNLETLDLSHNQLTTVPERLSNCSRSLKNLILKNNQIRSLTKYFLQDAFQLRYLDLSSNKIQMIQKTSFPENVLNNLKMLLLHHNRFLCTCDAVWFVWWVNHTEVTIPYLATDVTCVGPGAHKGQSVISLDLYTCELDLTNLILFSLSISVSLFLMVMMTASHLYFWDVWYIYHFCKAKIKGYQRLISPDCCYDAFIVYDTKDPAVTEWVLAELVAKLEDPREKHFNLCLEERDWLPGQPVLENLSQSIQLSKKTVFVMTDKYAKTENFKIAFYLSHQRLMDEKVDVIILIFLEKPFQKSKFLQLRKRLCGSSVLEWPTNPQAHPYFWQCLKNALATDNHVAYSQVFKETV
The experiment in a line: TLR7 inhibition reporter assay (HEK-Blue, SEAP). Particulars: HEK-Blue cells overexpressing human TLR7, gardiquimod 7.5 μM, 22 hour incubation. On the procedure:
(§1) TLR7/8/9 Inhibition Reporter Assays
(§2) HEK-Blue™-cells (Invivogen) overexpressing human TLR7, TLR8 or TLR9 receptors were used for screening inhibitors of these receptors using an inducible SEAP (secreted embryonic alkaline phosphatase) reporter gene under the control of the IFN-β minimal promoter fused to five NF-κB and AP-1-binding sites. Briefly, cells are seeded into Greiner 384 well plates (15000 cells per well for TLR7, 20,000 for TLR8 and 25,000 for TLR9) and then treated with test compounds in DMSO to yield a final dose response concentration range of 0.05 nM-50 μM. After a 30 minute compound pre-treatment at room temperature, the cells are then stimulated with a TLR7 ligand (gardiquimod at a final concentration of 7.5 μM), TLR8 ligand (R848 at a final concentration of 15.9 μM) or TLR9 ligand (ODN2006 at a final concentration of 5 nM) to activate NF-κB and AP-1 which induce the production of SEAP. After a 22 hour incubation at 37° C., 5% CO2, SEAP levels are determined with the addition of HEK-Blue™ Detection reagent (Invivogen), a cell culture medium that allows for detection of SEAP, according to manufacturer's specifications. The percent inhibition is determined as the % reduction in the HEK-Blue signal present in wells treated with agonist plus DMSO alone compared to wells treated with a known inhibitor.

Another assay addresses T2, human TLR8 (Homo sapiens, UniProt Q9NR97).
T2 construct: host or cells: HEK-Blue cells
T2 sequence (Q9NR97 27-1041): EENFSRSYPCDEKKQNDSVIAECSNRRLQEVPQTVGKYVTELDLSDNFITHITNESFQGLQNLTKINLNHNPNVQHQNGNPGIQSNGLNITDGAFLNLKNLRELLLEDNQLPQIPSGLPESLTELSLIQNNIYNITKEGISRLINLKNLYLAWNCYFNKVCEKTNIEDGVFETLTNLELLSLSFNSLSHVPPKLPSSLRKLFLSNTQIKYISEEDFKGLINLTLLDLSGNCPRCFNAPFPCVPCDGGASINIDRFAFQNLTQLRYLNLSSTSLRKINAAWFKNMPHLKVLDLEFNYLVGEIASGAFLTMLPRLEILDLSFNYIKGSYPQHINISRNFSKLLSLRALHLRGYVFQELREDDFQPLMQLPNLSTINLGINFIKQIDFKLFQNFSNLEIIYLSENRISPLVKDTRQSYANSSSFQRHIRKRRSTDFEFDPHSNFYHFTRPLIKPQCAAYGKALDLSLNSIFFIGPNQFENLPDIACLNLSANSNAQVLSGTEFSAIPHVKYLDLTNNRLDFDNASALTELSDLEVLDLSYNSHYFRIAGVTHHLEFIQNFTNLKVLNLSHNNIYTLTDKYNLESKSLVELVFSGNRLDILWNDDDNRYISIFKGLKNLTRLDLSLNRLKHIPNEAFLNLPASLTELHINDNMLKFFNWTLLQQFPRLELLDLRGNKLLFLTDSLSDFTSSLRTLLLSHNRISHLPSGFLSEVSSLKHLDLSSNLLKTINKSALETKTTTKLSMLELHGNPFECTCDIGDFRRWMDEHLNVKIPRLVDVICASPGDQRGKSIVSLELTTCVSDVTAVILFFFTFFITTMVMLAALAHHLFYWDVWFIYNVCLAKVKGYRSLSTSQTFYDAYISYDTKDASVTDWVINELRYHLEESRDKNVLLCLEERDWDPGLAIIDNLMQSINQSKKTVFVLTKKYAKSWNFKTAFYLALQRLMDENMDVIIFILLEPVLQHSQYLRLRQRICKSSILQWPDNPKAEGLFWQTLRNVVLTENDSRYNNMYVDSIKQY
The experiment in a line: TLR8 inhibition reporter assay (HEK-Blue, SEAP). The settings on record: HEK-Blue cells overexpressing human TLR8, R848 15.9 μM, 22 hour incubation. On the procedure:
as §1, §2

For a further assay, the target named is T3, human TLR9 (Homo sapiens, UniProt Q9NR96).
T3 construct: host or cells: HEK-Blue cells
T3 sequence (Q9NR96 26-1032): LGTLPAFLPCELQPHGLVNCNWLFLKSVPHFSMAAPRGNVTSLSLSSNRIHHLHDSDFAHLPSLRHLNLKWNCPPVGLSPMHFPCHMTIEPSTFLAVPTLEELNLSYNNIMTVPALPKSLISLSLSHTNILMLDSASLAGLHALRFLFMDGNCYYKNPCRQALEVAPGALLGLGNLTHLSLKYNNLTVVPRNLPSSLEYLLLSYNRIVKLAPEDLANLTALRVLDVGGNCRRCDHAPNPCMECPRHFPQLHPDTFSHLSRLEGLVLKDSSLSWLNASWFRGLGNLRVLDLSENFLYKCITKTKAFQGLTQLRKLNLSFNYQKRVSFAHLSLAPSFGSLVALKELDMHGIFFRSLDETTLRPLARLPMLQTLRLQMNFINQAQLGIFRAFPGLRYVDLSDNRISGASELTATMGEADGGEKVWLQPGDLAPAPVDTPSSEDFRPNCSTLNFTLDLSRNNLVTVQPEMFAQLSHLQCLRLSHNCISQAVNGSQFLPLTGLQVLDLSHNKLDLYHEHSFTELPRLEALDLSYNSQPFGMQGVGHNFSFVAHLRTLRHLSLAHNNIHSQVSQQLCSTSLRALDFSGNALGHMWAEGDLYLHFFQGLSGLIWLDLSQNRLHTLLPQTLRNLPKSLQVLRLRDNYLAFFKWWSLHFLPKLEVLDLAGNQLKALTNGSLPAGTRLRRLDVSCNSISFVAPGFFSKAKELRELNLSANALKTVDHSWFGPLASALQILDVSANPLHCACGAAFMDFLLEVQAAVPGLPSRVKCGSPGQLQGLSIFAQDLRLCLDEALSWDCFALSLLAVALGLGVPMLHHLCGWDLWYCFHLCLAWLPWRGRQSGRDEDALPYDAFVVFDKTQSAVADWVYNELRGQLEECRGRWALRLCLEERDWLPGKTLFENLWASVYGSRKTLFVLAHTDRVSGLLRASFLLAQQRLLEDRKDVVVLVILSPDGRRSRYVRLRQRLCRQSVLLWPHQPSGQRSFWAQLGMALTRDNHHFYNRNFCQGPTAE
The experiment in a line: TLR9 inhibition reporter assay (HEK-Blue, SEAP). The settings on record: HEK-Blue cells overexpressing human TLR9, ODN2006 5 nM, 22 hour incubation. As for the experimental part: as §1, §2
On the technique in general: Reporter assays use an easily measured gene product as a stand-in for the process of interest.

Consider `Cc1c(-c2[nH]c3ccc(C4C[C@H]5CC[C@@H](C4)N5CC(=O)N(C)C)cc3c2C(C)C)cn2cnnc2c1C` (single isomer, unassigned) [Example 119], for which the 50% inhibitory concentration (IC50) at human TLR7 turned out to be 12.9 nM; against human TLR8 it was 103 nM; at human TLR9 it was 1020 nM.

As for `Cc1c(-c2[nH]c3ccc(C4C[C@H]5CC[C@@H](C4)N5CC4(C)COC4)cc3c2C(C)C)cn2cnnc2c1C` (single isomer, unassigned) [Example 120], the IC50 at human TLR7 was found to be 6.7 nM; against human TLR8, 45.9 nM; at human TLR9, 3800 nM.

For `Cc1c(-c2[nH]c3ccc(C4C[C@H]5CC[C@@H](C4)N5CC4(C)COC4)cc3c2C(C)C)cn2cnnc2c1C` (single isomer, unassigned) [Example 121], the IC50 on human TLR7 worked out at 3.2 nM; against human TLR8, 47.6 nM; against human TLR9, 4840 nM.

As to `Cc1c(-c2[nH]c3ccc(C4C[C@H]5CC[C@@H](C4)N5C4COC4)cc3c2C(C)C)cn2cnnc2c1C` (single isomer, unassigned) [Example 122], the values for the IC50 against human TLR7, against human TLR8 and against human TLR9 were 2.3 nM, 98.9 nM and 5940 nM, respectively.

`Cc1c(-c2[nH]c3ccc(C4C[C@H]5CC[C@@H](C4)N5C4COC4)cc3c2C(C)C)cn2cnnc2c1C` (single isomer, unassigned) [Example 123]: the half-maximal inhibitory concentration (IC50) was determined as 7.6 nM against human TLR7, 151 nM at human TLR8 and 8480 nM at human TLR9.

`CC(C)c1c(-c2ccc3nncn3c2)[nH]c2ccc(C3CCNCC3)cc12` [Example 1, 6-(3-isopropyl-5-(piperidin-4-yl)-1H-indol-2-yl)-[1,2,4]triazolo[4,3-a]pyridine]: the IC50 against human TLR7 worked out at 22.8 nM; on human TLR8 it was 140 nM; on human TLR9, 902 nM.

For the molecule `Cc1cc(-c2[nH]c3ccc(C4CCNCC4)cc3c2C(C)C)cn2cnnc12` [Example 2, 6-(3-isopropyl-5-(piperidin-4-yl)-1H-indol-2-yl)-8-methyl-[1,2,4]triazolo[4,3-a]pyridine], the values for the 50% inhibitory concentration (IC50) against human TLR7, against human TLR8 and at human TLR9 were 4.8 nM, 12.5 nM and 528 nM, respectively.

As for `Cc1nnc2ccc(-c3[nH]c4ccc(C5CCNCC5)cc4c3C(C)C)cn12` [Example 3, 6-(3-isopropyl-5-(piperidin-4-yl)-1H-indol-2-yl)-3-methyl-[1,2,4]triazolo[4,3-a]pyridine], the figures for the IC50 at human TLR7, against human TLR8 and at human TLR9 were 27.1 nM, 40.7 nM and 340 nM, respectively.

As for `Cc1cc2nncn2cc1-c1[nH]c2ccc(C3CCNCC3)cc2c1C(C)C` [Example 4, 6-(3-isopropyl-5-(piperidin-4-yl)-1H-indol-2-yl)-7-methyl-[1,2,4]triazolo[4,3-a]pyridine], the IC50 is 56.7 nM against human TLR7, 2340 nM on human TLR8 and 2430 nM at human TLR9.

With `Cc1c(-c2[nH]c3ccc(C4CCNCC4)cc3c2C(C)C)ccc2nncn12` [Example 5, 6-(3-isopropyl-5-(piperidin-4-yl)-1H-indol-2-yl)-5-methyl-[1,2,4]triazolo[4,3-a]pyridine], the IC50 against human TLR7 turned out to be 154 nM; at human TLR8 it was 133 nM; against human TLR9, 1240 nM.

In the case of `Cc1cc(-c2[nH]c3ccc(C4CCNCC4)cc3c2C(C)C)cn2c(C)nnc12` [Example 6, 6-(3-isopropyl-5-(piperidin-4-yl)-1H-indol-2-yl)-3,8-dimethyl-[1,2,4]triazolo[4,3-a]pyridine], the half-maximal inhibitory concentration (IC50) on human TLR7 turned out to be 5.2 nM; on human TLR8, 18.9 nM; on human TLR9, 486 nM.

For `COCc1nnc2ccc(-c3[nH]c4ccc(C5CCNCC5)cc4c3C(C)C)cn12` [Example 7, 6-(3-isopropyl-5-(piperidin-4-yl)-1H-indol-2-yl)-3-(methoxymethyl)-[1,2,4]triazolo[4,3-a]pyridine], the values for the IC50 against human TLR7, against human TLR8 and against human TLR9 were 156 nM, 1230 nM and 3230 nM, respectively.

Turning to `Cc1c(-c2[nH]c3ccc(C4CCNCC4)cc3c2C(C)C)cn2cnnc2c1C` [Example 8, 6-(3-isopropyl-5-(piperidin-4-yl)-1H-indol-2-yl)-7,8-dimethyl-[1,2,4]triazolo[4,3-a] pyridine], the IC50 amounted to 5.2 nM against human TLR7, 29.6 nM on human TLR8 and 1880 nM at human TLR9.

The term IC50 denotes the midpoint of a concentration-inhibition curve. High values mean a need for much substance, low ones inhibition by little substance.
